Here are results for 18 molecules from PubChem BioAssay AID1259408 (Genetic Toxicology Data Bank (GENE-TOX), 2018).

The data set relates to GENE-TOX genotoxicity assays, various organisms and cells. The data set is described as follows: GENE-TOX mutagenicity studies. The conditions noted are these: for call: Assay Type: In vivo carcinogenicity studies, Assay Code: CCG+.
Setting [1] is: Species/Cell Type: Drosophila melanogaster, Assay Type: Sex-linked recessive lethal gene mutation, Assay Code: SRL+, Evaluation Type: Evaluation A (Pre-1980).
[2] abbreviates: Species/Cell Type: Nonhuman, Evaluation Type: Evaluation A (Pre-1980).
[3] abbreviates: Species/Cell Type: Saccharomyces cerevisiae, Assay Type: Mitotic recombination or gene conversion, Assay Code: YEH+, Evaluation Type: Evaluation A (Pre-1980).
[4] abbreviates: Species/Cell Type: Mammalian polychromatic erythrocytes, Assay Type: Micronucleus test, chromosome aberrations, Assay Code: MNTT, Evaluation Type: Evaluation A (Pre-1980).
[5] abbreviates: Species/Cell Type: Rodents, Sex: Male, Assay Type: Dominant lethal test, Assay Code: DLT-, Evaluation Type: Evaluation A (Pre-1980).
[6] abbreviates: Species/Cell Type: Escherichia coli polA (W3119 vs P3478), Assay Type: Rec-assay, DNA effects (bacterial DNA repair), Assay Code: RE1T, Evaluation Type: Evaluation A (Pre-1980).
[7] abbreviates: Species/Cell Type: Nonhuman, Assay Type: Sister-chromatid exchange (SCE) in vitro, Assay Code: SC2+D, Dose Response: With dose response, Evaluation Type: Evaluation B (Post-1980).
Setting [8] is: Species/Cell Type: Salmonella typhimurium (one or more of the five standard strains: TA98, TA100, TA1535, TA1537, and TA1538), Assay Type: Histidine reverse gene mutation, Ames assay, Assay Code: SALT, Evaluation Type: Evaluation A (Pre-1980).
Setting [9] is: Species/Cell Type: Nonhuman, Assay Type: Sister-chromatid exchange (SCE) in vitro, Assay Code: SC2-, Evaluation Type: Evaluation B (Post-1980).

Molecules are shown by their SMILES. Activity calls are given as the source filed them. How the calls were made is not given here.

On to `CN(C)N=Nc1ccccc1`, for which the mutagenic call reads like this: (Species/Cell Type: Drosophila melanogaster, Assay Type: Aneuploidy, partial sex chromosome loss, chromosome aberrations, Assay Code: DAP+M, Evaluation Type: Evaluation A (Pre-1980)) “active; positive”; under setting [1], “active; positive”; (Species/Cell Type: Drosophila melanogaster, Sex: Male, Assay Type: Heritable translocation test, chromosome aberrations, Assay Code: DHT+, Evaluation Type: Evaluation A (Pre-1980)) “active; positive”; (Species/Cell Type: Escherichia coli polA (W3110 vs P3478), Assay Type: Rec-assay, DNA effects (bacterial DNA repair), Assay Code: RE2+, Evaluation Type: Evaluation A (Pre-1980)) “active; positive”; (Species/Cell Type: Escherichia coli polA (W3119 vs P3478), Assay Type: Rec-assay, DNA effects (bacterial DNA repair), Assay Code: RE1+, Evaluation Type: Evaluation A (Pre-1980)) “active; positive”; (Species/Cell Type: Mammalian polychromatic erythrocytes, Assay Type: Micronucleus test, chromosome aberrations, Assay Code: MNT+, Evaluation Type: Evaluation A (Pre-1980)) “active; positive”. Moreover, the mutagenic call by setting is: (Species/Cell Type: Neurospora crassa, Assay Type: Forward gene mutation, Assay Code: NEF+, Evaluation Type: Evaluation A (Pre-1980)) “active; positive”; (Species/Cell Type: Nonhuman lymphocytes or leukocytes, Assay Type: Chromosome aberrations in vivo, Assay Code: CY%-, Evaluation Type: Evaluation A (Pre-1980)) “inactive; negative”; (Species/Cell Type: Nonhuman, Assay Type: Sister-chromatid exchange (SCE) in vivo, Assay Code: SC3+D, Dose Response: With dose response, Evaluation Type: Evaluation A (Pre-1980)) “active; positive”; (Species/Cell Type: Saccharomyces cerevisiae, Assay Type: Forward and reverse gene mutation, mitotic recombination and gene conversion, host-mediated assay, Assay Code: HME+, Evaluation Type: Evaluation A (Pre-1980)) “active; positive”; (Species/Cell Type: Saccharomyces cerevisiae, Assay Type: Mitotic recombination or gene conversion, Assay Code: YEC+, Evaluation Type: Evaluation A (Pre-1980)) “active; positive”; under setting [3], “active; positive”. Also, the call under setting [2] is “active; positive”.

Regarding `CCOS(=O)(=O)CC`, the mutagenic call is “active; positive” (Species/Cell Type: Arabidopsis species, Assay Type: Gene mutation, Assay Code: ARM+, Evaluation Type: Evaluation A (Pre-1980)); “inactive; negative” (Species/Cell Type: Hordeum vulgare (barley), Assay Type: Chromosome aberrations, Assay Code: HOC-, Evaluation Type: Evaluation A (Pre-1980)); “active; positive” (Species/Cell Type: Hordeum vulgare (barley), Assay Type: Gene mutation, Assay Code: HOM+D, Dose Response: With dose response, Evaluation Type: Evaluation A (Pre-1980)).

For the molecule `Nc1cc([N+](=O)[O-])ccc1O`, the mutagenic call was “no conclusion” under setting [4]; “inactive; negative” (Species/Cell Type: Neurospora crassa, Assay Type: Aneuploidy, chromosome aberrations, Assay Code: NEN-, Evaluation Type: Evaluation A (Pre-1980)); “inactive; negative” under setting [5].

As to `COc1cc(-c2ccc(N)c(OC)c2)ccc1N`, the mutagenic call reads like this: under setting [6], “no conclusion”; (Species/Cell Type: Human diploid fibroblasts, Assay Type: Unscheduled DNA synthesis (UDS) in vitro, DNA effects, Assay Code: UDH+*, Activation: With metabolic activation, Evaluation Type: Evaluation A (Pre-1980)) “active; positive”; under setting [7], “active; positive”; (Species/Cell Type: Salmonella typhimurium (one or more of the five standard strains: TA98, TA100, TA1535, TA1537, and TA1538), Assay Type: Histidine reverse gene mutation, Ames assay, Assay Code: SAL+*, Activation: With metabolic activation, Evaluation Type: Evaluation A (Pre-1980)) “active; positive”. For the same molecule, the call under setting [2] is “active; positive”.

Consider `CCN(CC)CCCNC(=O)C(=O)N/N=C/c1ccc([N+](=O)[O-])o1`, for which the mutagenic call (Species/Cell Type: Escherichia coli WP2 UVRA, Assay Type: Tryptophan reverse gene mutation, Assay Code: WPU+D, Dose Response: With dose response, Evaluation Type: Evaluation A (Pre-1980)) is “active; positive”.

As to `[O-][Cl+]O`, under “Species/Cell Type: Mammalian polychromatic erythrocytes, Assay Type: Micronucleus test, chromosome aberrations, Assay Code: MNTT, Evaluation Type: Evaluation B (Post-1980)”, the mutagenic call is given as “no conclusion”.

In the case of `O=C1CC[C@@]2(O)[C@H]3Cc4ccc(O)c5c4[C@@]2(CCN3CC2CC2)[C@H]1O5`, the mutagenic call by setting is: under setting [1], “active; positive”; (Species/Cell Type: Drosophila melanogaster, Sex: Male, Assay Type: Heritable translocation test, chromosome aberrations, Assay Code: DHT-, Evaluation Type: Evaluation A (Pre-1980)) “inactive; negative”; (Species/Cell Type: Human diploid fibroblasts, Assay Type: Unscheduled DNA synthesis (UDS) in vitro, DNA effects, Assay Code: UDH+, Evaluation Type: Evaluation A (Pre-1980)) “active; positive”; (Species/Cell Type: Saccharomyces cerevisiae, Assay Type: Mitotic recombination or gene conversion, Assay Code: YEC-, Evaluation Type: Evaluation A (Pre-1980)) “inactive; negative”; under setting [8], “no conclusion”.

As for `CN(N=O)C(=O)N[C@@H]1O[C@H](CO)[C@H](O)[C@H](O)[C@H]1O`, under “Species/Cell Type: Chinese hamster lung (V79) cells, Assay Type: Forward gene mutation at the HPRT or ouabain locus, Assay Code: V79+, Evaluation Type: Evaluation A (Pre-1980)”, the mutagenic call is “active; positive”.

For the molecule `Cc1c(N(C)C)c(=O)n(-c2ccccc2)n1C`, the mutagenic call (Species/Cell Type: Nonhuman, Assay Type: Sister-chromatid exchange (SCE) in vitro, Assay Code: SC2-, Evaluation Type: Evaluation A (Pre-1980)) is “inactive; negative”.

Consider `O=C1CN(CO)C(=O)CN1CO`, for which the mutagenic call (Species/Cell Type: Arabidopsis species, Assay Type: Gene mutation, Assay Code: ARM-, Evaluation Type: Evaluation A (Pre-1980)) is “inactive; negative”.

With `O=C(NOS(=O)(=O)O)c1ccc2ccccc2c1`, the mutagenic call under setting [7] was “active; positive”.

`O=C1OC2(c3cc(Br)c(O)c(Br)c3Oc3c2cc(Br)c(O)c3Br)c2c(Cl)ccc(Cl)c21`: the mutagenic call (Species/Cell Type: Bacillus subtilis (H17 vs M45), Assay Type: Rec-assay, spot test, DNA effects (bacterial DNA repair), Assay Code: REW-, Evaluation Type: Evaluation A (Pre-1980)) is “inactive; negative” and the mutagenic call (Species/Cell Type: Bacillus subtilis (H17 vs M45T), Assay Type: Rec-assay, spot test, DNA effects (bacterial DNA repair), Assay Code: REX+, Evaluation Type: Evaluation A (Pre-1980)) is “active; positive”.

`O=c1[nH]c(Cl)c(Cl)cc1Cl`: the mutagenic call reads like this: (Species/Cell Type: Nonhuman, Assay Type: Sister-chromatid exchange (SCE) in vitro, Assay Code: SC2T, Evaluation Type: Evaluation B (Post-1980)) “no conclusion”; (Species/Cell Type: Nonhuman, Assay Type: Sister-chromatid exchange (SCE) in vivo, Assay Code: SC3-, Evaluation Type: Evaluation B (Post-1980)) “inactive; negative”.

For `O=S(O)OS(=O)O`, the mutagenic call (Species/Cell Type: Escherichia coli WP2 UVRA, Assay Type: Tryptophan reverse gene mutation, Assay Code: WPU-*, Activation: With metabolic activation, Evaluation Type: Evaluation A (Pre-1980)) is “inactive; negative”.

With `ClCCNCCNc1c2ccccc2nc2c1ccc1ccccc12`, the mutagenic call (Species/Cell Type: Salmonella typhimurium (one or more of the five standard strains: TA98, TA100, TA1535, TA1537, and TA1538), Assay Type: Histidine reverse gene mutation, Ames assay, Assay Code: SAL+, Evaluation Type: Evaluation A (Pre-1980)) was “active; positive”.

For the molecule `[Cl][Cd][Cl]`, the mutagenic call is, setting by setting: (Species/Cell Type: Bacillus subtilis (H17 vs M45), Assay Type: Rec-assay, spot test, DNA effects (bacterial DNA repair), Assay Code: REW+, Evaluation Type: Evaluation A (Pre-1980)) “active; positive”; (Species/Cell Type: Drosophila melanogaster, Assay Type: Aneuploidy, whole sex chromosome loss, chromosome aberrations, Assay Code: DAC+, Evaluation Type: Evaluation A (Pre-1980)) “active; positive”; (Species/Cell Type: Human lymphocytes or leukocytes, Assay Type: Chromosome aberrations in vitro, Assay Code: CY7-, Evaluation Type: Evaluation A (Pre-1980)) “inactive; negative”; (Species/Cell Type: Mammalian polychromatic erythrocytes, Assay Type: Micronucleus test, chromosome aberrations, Assay Code: MNT-, Evaluation Type: Evaluation B (Post-1980)) “inactive; negative”; under setting [4], “no conclusion”; (Species/Cell Type: Mouse, Sex: Male, Assay Type: Sperm morphology, Assay Code: SPIT, Evaluation Type: Evaluation A (Pre-1980)) “no conclusion”. Further, the mutagenic call runs as follows: under setting [9], “inactive; negative”; (Species/Cell Type: Rabbit, Sex: Male, Assay Type: Sperm morphology, Assay Code: SPR+, Evaluation Type: Evaluation A (Pre-1980)) “active; positive”; (Species/Cell Type: Rat, Sex: Male, Assay Type: Sperm morphology, Assay Code: SPA+, Evaluation Type: Evaluation A (Pre-1980)) “active; positive”; under setting [5], “inactive; negative”; under setting [3], “active; positive”; under setting [8], “no conclusion”. For the same molecule, the mutagenic call is, setting by setting: (Species/Cell Type: Salmonella typhimurium, Assay Type: Forward and reverse gene mutation, host-mediated assay, Assay Code: HMA-, Evaluation Type: Evaluation A (Pre-1980)) “inactive; negative”; (Species/Cell Type: Syrian hamster embryo (SA7/SHE) cells, Assay Type: Cell transformation, viral enhanced, Assay Code: CT7+, Evaluation Type: Evaluation A (Pre-1980)) “active; positive”. Besides, under setting [2], the call is “active; positive”.

Take `O.O.O.O.O.O.[Cl-].[Cl-].[Cl-].[Fe+3]`: the mutagenic call under setting [9] is “inactive; negative”.

`CN(CCCCOC[C@H](N)C(=O)O)N=O`: the mutagenic call runs as follows: (Species/Cell Type: Escherichia coli polA (W3110 vs P3478), Assay Type: Rec-assay, DNA effects (bacterial DNA repair), Assay Code: RE2-, Evaluation Type: Evaluation A (Pre-1980)) “inactive; negative”; under setting [6], “no conclusion”.
